Assay results as given in PMC8659164, “Effect of S–Se Bioisosteric Exchange on Affinity and Intrinsic Efficacy of Novel N-acylhydrazone Derivatives at the Adenosine A2A Receptor” (Molecules, 2021).

target: T1, adenosine A2A receptor (A2AR) (Rattus norvegicus, UniProt P30543); assay: [3H]-ZM241385 competition, rat striatum membranes; format: binding; conditions: 50 mM MgCl2 (medium I), 0.5 nM [3H]-ZM241385, pH 7.4, 25 °C, 60 min; parentheses = 95% CI
T1 construct: gene Adora2a; native full-length receptor in striatum membrane preparation of adult male Wistar rats
T1 sequence (P30543 whole entry): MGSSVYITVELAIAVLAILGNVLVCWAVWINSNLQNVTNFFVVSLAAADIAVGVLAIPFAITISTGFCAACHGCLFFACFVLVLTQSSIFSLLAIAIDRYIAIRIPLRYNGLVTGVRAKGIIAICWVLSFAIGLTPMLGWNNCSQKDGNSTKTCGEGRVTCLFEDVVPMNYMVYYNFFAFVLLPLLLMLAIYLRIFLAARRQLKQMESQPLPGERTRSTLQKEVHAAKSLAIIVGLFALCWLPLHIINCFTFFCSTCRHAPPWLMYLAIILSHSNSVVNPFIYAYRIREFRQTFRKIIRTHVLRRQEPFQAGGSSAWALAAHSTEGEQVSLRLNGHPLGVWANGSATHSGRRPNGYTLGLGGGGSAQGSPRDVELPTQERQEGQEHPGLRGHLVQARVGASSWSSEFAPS
From the text: [3H]-ZM241385 competition, rat striatum membranes on adenosine A2A receptor (A2AR)

Compound	IC50 [µM]
CN(/N=C/c1ccc[se]1)C(=O)c1ccc2c(c1)OCO2 [compound 6, N-Methyl-N’-(selenophen-2-yl-methylene) benzo[d][1,3]dioxole-5-carbohydrazide]	52.9
COc1cccc(C(=O)N(C)/N=C/c2ccc[se]2)c1 [compound 8, LASSBio-2199]	15.4
COc1cccc(C=NNC(=O)c2ccc[se]2)c1 [compound 14, N’-(3-Methoxybenzylidene)selenophene-2-ca-rbohydrazide]	16.6
O=C(N/N=C/c1cccs1)c1ccc2c(c1)OCO2 [compound 1, LASSBio-294]	38.9
COc1cccc(C(=O)N/N=C/c2cccs2)c1 [compound 4, 3-Methoxy-N’-(thiophen-2-yl-methylene)benzohydrazide]	10.8
COc1cccc(C(=O)N(C)/N=C/c2cccs2)c1 [compound 7, 3-Methoxy-N-methyl-N’-(thiophen-2-yl-methylene)benzohydrazide]	22.3
O=C(N/N=C/c1ccc[se]1)c1ccc2c(c1)OCO2 [compound 3, N’-(Selenophen-2-yl-methylene)benzo[d][1,3] dioxole-5-carbohydrazide]	20.9
COc1cccc(C=NNC(=O)c2cccs2)c1 [compound 13, N’-(3-Methoxybenzylidene)thiophene-2-carbo-hydrazide]	27.1
COc1cccc(C(=O)N/N=C/c2ccc[se]2)c1 [compound 5, 3-Methoxy-N’-(selenophen-2-yl-methylene)benzohydrazide]	10.4
CN(/N=C/c1cccs1)C(=O)c1ccc2c(c1)OCO2 [compound 2, LASSBio-785]	47.9
